Read-outs that look alike come from different tables or passages of the source.
How the values were obtained:
[1] = Everolimus whole blood concentrations and Bayesian estimation of PK parameters and trough concentrations; format: in vivo, human; conditions: for trough concentration estimate at grade 2 stomatitis: person
Description: Whole blood samples for the everolimus assay were collected at least two weeks after initiation of treatment or after the last everolimus dose change. Blood samples were collected at pre-dose, 1, 4, and 8 h after the everolimus dose. Blood everolimus concentrations were measured using a latex agglutination turbidimetric immunoassay ([Mori et al., 2014]) for the samples collected during November 2015 to September 2016 (n = 10) and using electrochemiluminescence immunoassay ([Blackburn et al., 1991]) for the samples collected during October 2016 to November 2018 (n = 8). Since these two techniques are highly correlated, the measured results were considered to be the same (r = 0.972) ([Sasano et al., 2016]).
PK parameters such as clearance (CL) and volume of distribution were estimated using Bayesian analysis in MW/Pharm++ software (Mediware, Prague, Czech Republic) ([Fuchs et al., 2013]). […] Ka was fixed for all analyses due to the limited data to characterize the absorption. The PK parameters were allometrically scaled to body weight to account for the effect of body size differences according to the following formula: Pi=Ppop×(BWi/BWstandard)^power where Pi was the estimated PK parameter for individual i, Ppop was the typical population value of the PK parameters. BWstandard was the standard body weight of 70 kg. The power coefficient was 0.75 for CL and intercompartment clearance and 1 for volume of distribution of the central compartment and the peripheral compartment.
Everolimus concentrations at steady-state or at the time of occurrence of dose-limiting toxicity was estimated using the Bayesian-estimated PK parameters of the individual patient.

[2] = cited from earlier work
[3] = parameters: method as in de Wit et al. (2016); conditions: ref de Wit et al. (2016), cited from earlier work
[4] = system: patients with advanced or metastatic breast cancer; test: Progression-free survival (Kaplan-Meier, log-rank); format: in vivo, human; conditions: for PFS: single patient
Excerpt: This was a prospective, observational PK study. Patients with advanced or metastatic breast cancer who received everolimus between November 2015 and November 2018 at Kobe City Medical Center General Hospital were enrolled in this study. The main inclusion criteria included the following: age ≥20 years; Eastern Cooperative Oncology Group (ECOG) performance status (PS): 0 or 1; and adequate bone marrow, liver, and renal function. The main exclusion criteria were interstitial pneumonia or pulmonary fibrosis, HBsAg positive, and psychiatric or psychological symptoms that made it difficult to participate in the study. Every participant provided written informed consent. This study was conducted in accordance with the Declaration of Helsinki and approved by the Institutional Review Board, under Approval Number zn151103.
Statistical differences in everolimus trough concentrations, doses and body weights between patient cohorts were assessed using the Mann–Whitney test. Progression-free survival (PFS) was assessed using the Kaplan-Meier method and the log-rank test. All statistical analyses were performed using GraphPad Prism version 7.03 (San Diego, CA). p < 0.05 was considered statistically significant.

[5] = system: breast cancer patients; parameters: method as in Ito et al., 2015; conditions: Japanese population in the BOLERO-2 study; ref Ito et al., 2015; cited from earlier work
[6] = system: patients; conditions: cited from earlier work
[7] = five patients who did not experience DLTs
[8] = patients with breast, kidney and neuroendocrine cancer, ref Deppenweiler et al. (2017)

CO[C@H]1C[C@@H]2CC[C@@H](C)[C@@](O)(O2)C(=O)C(=O)N2CCCC[C@H]2C(=O)O[C@H]([C@H](C)C[C@@H]2CC[C@@H](OCCO)[C@H](OC)C2)CC(=O)[C@H](C)/C=C(\C)[C@@H](O)[C@@H](OC)C(=O)[C@H](C)C[C@H](C)/C=C/C=C/C=C/1C [everolimus]
steady-state trough concentrations at the starting dose, range ([1]; 5 mg starting dose, six patients, approximated with Bayesian-estimated PK parameters): 11.3 to 29.6 ng/mL | estimated steady-state trough concentration when the dose was reduced and maintained without DLT, range ([1]; 13 patients who had DLTs): 5.7 to 24.2 ng/mL | median estimated steady-state trough concentration when the dose was reduced and maintained without DLT ([1]; 13 patients who had DLTs): 8.3 ng/mL | estimated trough concentration at the time of the DLTs, range ([1]; 13 patients with DLTs): 11.3 to 64.6 ng/mL | median estimated trough concentration at the time of the DLTs ([1]; 13 patients with DLTs): 19.0 ng/mL | CL, Mean ([1]; Bayesian estimate, steady state, Japanese breast cancer patients n = 18, scaled to 70 kg): 11.7 L/h/70 kg | estimated trough concentration after dose reduction ([1]; all patients except in one patient): higher than 6 ng/ml | steady-state trough concentration after restarting the treatment ([1]; case Figure 3A, 5 mg once daily, no DLTs): 8.4 ng/mL | trough concentration estimate at grade 2 stomatitis ([1]; case Figure 3A, 10 mg once daily, two weeks after initiation): 16.8 ng/mL | steady-state trough concentration after everolimus dose reduction ([1]; case Figure 3B, 5 mg every alternate day): 9.2 ng/mL | trough concentration estimate at grade 2 stomatitis ([1]; case Figure 3B, 5 mg once daily, day 90): 29.6 ng/mL | trough concentration, median [1, 7]: 19.0 ng/mL | trough concentration, range [1, 7]: 12.8 to 33.2 ng/mL | clearance (CL), range ([1]; inter-individual range, n = 18): 5.1–21.3 L/h/70 kg | volume of distribution of the central compartment, range ([1]; inter-individual range, n = 18): 9.9–103.6 L/70 kg | dose-adjusted trough concentrations, range ([1]; whole blood, steady state, doses 10, 5, 2.5 mg/day or 5 mg every alternate day): 1.3 to 6.5 ng/mL/mg/day | suggested target trough concentration ([2]; kidney transplant patients, calcineurin-inhibitor-free regimen, ref Shipkova et al., 2016): 6 to 10 ng/mL | trough concentration associated with increased risk of progression [2, 8]: lower than 11.9 ng/ml | trough concentration associated with increased risk of toxicity [2, 8]: higher than 26.3 ng/ml | trough concentration threshold for increased risk of overall severe toxicity ([2]; review, ref Falkowski and Woillard (2019)): higher than 20 ng/ml | increase of risk of toxicity ([2]; trough concentrations higher than 26.3 ng/ml, ref Deppenweiler et al. (2017)): 4 fold | increase of risk of progression ([2]; trough concentrations lower than 11.9 ng/ml, ref Deppenweiler et al. (2017)): 3 fold | suggested target trough concentration ([2]; tuberous sclerosis, ref Combes et al., 2018): 5 to 15 ng/mL | absorption rate constant (Ka) ([3]; fixed for all analyses): 0.643 h⁻¹ | clearance (CL), population prior ([3]; two-compartment model, patients with thyroid cancer): 20.3 L/h | PFS ([4]; case Figure 3A): 8.5 months | PFS ([4]; case Figure 3B): 13.8 months | trough concentration to which adjusting may significantly prolong PFS ([4]; discussion statement): 10 to 20 ng/mL | trough concentration group with significantly longer PFS ([4]; groups <10 (n = 9), 10–20 (n = 6), >20 ng/ml (n = 3), log-rank p = 0.0078): 10 to 20 ng/mL | number of patients with PFS more than 8.5 months ([4]; of 18 patients): 14 | PFS, range ([4]; study population, n = 18): 1.7–55.8 months | median PFS ([4]; study population, n = 18, with exemestane): 13.7 months | median PFS [5]: 8.5 months | incidence of stomatitis ([6]; Japanese breast cancer patients, ref BOLERO-2 study): 88% | proportion of patients who required a second dose reduction to 2.5 mg daily ([6]; clinical study in Spain (6/90), ref Pascual et al., 2017): 7% | proportion of patients who required a dose reduction to 5 mg daily ([6]; clinical study in Spain (43/90), ref Pascual et al., 2017): 48% | incidence of stomatitis ([6]; patients with breast cancer, ref Alexopoulos et al., 2022, Ruíz-Falcó Rojas et al., Tedesco-Silva et al.): 20%–50% | incidence of stomatitis ([6]; renal transplant or tuberous sclerosis complex, ref Alexopoulos et al., 2022, Ruíz-Falcó Rojas et al., Tedesco-Silva et al.): approximately 10%

From PMC9520775, “Everolimus pharmacokinetics and exposure-response relationship in Japanese patients with advanced breast cancer” (Frontiers in Pharmacology, 2022)
